Reference: patent publication US10428080B2, “TBK/IKK inhibitor compounds and uses thereof” (Merck Patent GmbH, priority 2015, dated 2019)
Where a name gives a salt, the structure may show the parent alone. Read-outs that look alike come from different tables or passages of the source.

Key:
[1] = test system: phosphorylation of the IRF-3 protein in MDA-MB-468 cells; test: pIRF3 immunocytochemistry cell based assay; details: Homo sapiens
In short: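 After 2 h stimulation with Poly(I:C) (10 ug/ml), following 1 h compound pre-treatment (10-point, 3-fold dilution, top 10 uM), MDA-MB-468 cells were fixed and stained with anti-pIRF3 antibody. pIRF3 fluorescence was normalized to PI staining or cell count on an Acumen cytometer. IC50 curves were derived from this.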

TBK1 = biological target: T1, TBK1 (Homo sapiens, UniProt Q9UHD2); test: TBK Biochemical Assay; details: read-out: TBK1 IC50
T1 sequence (Q9UHD2 1-729): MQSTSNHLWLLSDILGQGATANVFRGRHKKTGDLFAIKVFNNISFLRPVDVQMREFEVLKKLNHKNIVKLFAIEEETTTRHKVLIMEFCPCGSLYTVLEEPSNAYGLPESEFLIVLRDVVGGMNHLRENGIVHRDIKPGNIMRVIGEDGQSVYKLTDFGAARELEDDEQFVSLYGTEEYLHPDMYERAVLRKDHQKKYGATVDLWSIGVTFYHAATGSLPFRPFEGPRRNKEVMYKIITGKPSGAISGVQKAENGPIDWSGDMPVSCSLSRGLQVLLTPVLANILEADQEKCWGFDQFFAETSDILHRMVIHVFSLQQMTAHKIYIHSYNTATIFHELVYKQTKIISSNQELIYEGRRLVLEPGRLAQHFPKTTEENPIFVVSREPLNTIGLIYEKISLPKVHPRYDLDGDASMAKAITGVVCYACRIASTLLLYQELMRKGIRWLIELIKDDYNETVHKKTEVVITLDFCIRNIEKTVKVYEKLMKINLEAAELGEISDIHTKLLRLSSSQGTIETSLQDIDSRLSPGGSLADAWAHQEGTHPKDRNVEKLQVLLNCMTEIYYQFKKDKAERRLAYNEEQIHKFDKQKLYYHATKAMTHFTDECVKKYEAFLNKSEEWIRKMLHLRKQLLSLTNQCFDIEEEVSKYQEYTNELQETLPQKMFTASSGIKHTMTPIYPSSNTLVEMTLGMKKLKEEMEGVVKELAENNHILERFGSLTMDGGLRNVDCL
In short: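 Caliper LabChip mobility-shift readout of substrate and product after 90 min of TBK1 reaction at 25° C and stop-buffer addition. Compounds tested in 1:4 serial dilution over 10 points from 30 uM final at 1% DMSO; staurosporine 10 uM final defines full inhibition.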

IKKε = biological target: T2, IKKε (Homo sapiens, UniProt Q14164); test: IKKe Biochemical Assay; details: read-out: IKKε IC50
T2 sequence (Q14164 1-716): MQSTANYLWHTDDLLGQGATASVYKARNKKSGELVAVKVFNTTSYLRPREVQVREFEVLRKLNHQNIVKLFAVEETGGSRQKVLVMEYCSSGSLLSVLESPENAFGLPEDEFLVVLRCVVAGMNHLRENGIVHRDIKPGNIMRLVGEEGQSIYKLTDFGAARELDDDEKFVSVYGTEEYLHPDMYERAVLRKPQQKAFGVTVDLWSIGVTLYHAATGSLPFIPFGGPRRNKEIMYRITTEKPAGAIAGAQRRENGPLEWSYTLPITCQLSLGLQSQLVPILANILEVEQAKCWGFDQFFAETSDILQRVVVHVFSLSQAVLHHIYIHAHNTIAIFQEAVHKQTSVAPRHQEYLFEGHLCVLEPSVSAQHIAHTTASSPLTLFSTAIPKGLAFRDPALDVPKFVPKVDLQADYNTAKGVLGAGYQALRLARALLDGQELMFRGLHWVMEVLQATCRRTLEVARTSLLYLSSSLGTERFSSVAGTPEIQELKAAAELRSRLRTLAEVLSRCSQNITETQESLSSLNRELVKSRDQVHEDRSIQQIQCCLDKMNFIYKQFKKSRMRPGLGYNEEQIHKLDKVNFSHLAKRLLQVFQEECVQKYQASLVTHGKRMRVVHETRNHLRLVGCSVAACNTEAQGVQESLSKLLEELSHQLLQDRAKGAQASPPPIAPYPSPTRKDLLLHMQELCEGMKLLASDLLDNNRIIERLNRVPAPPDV
In short: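 Activity was measured as mobility-shift separation of phosphorylated from unphosphorylated substrate on a LabChip EZ Reader. Compound was titrated from 30 uM final in 10 points, 1:4 steps, with 1% DMSO, and enzyme plus substrate reacted 90 min at 25° C before stop buffer. Control wells held 10 uM staurosporine.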

[2] = MDA-MB-468 cells, Poly(I:C) stimulation, read-out: pIRF3 IC50

IC50 [1, 2]	IC50 (TBK1)	IC50 (IKKε)	Compound	IC50 ([1]; MDA-MB-468, read-out: pIRF3 IC50)
100 to 1000 nM	< 100 nM	< 100 nM	N#Cc1cc(-c2ccnc3cc(-c4ccc(C(=O)NC5CNCCC5F)cc4)oc23)ccc1OC1CCOCC1 (racemic) [Compound 131, 4-{7-[3-Cyano-4-(tetrahydro-pyran-4-yloxy)-phenyl]-furo[3,2-b]pyridin-2-yl}-N-(4-fluoro-piperidin-3-yl)-benzamide]	
100 to 1000 nM	< 100 nM	< 100 nM	COc1cc(C(=O)N(C)C)ccc1-c1cc2ncc(F)c(-c3ccc(NC4CCOCC4)c(C#N)c3)c2o1 [Compound 299, 4-(7-[3-cyano-4-[(oxan-4-yl)amino]phenyl]-6-fluorofuro[3,2-b]pyridin-2-yl)-3-methoxy-N,N-dimethylbenzamide]	
100 to 1000 nM	< 100 nM	< 100 nM	COc1cc(C(=O)N[C@H]2CCN(C)C2)ccc1-c1cc2nccc(-c3ccc(OC4CCOCC4)c(C#N)c3)c2o1 [Compound 493, 5-{2-[4-(N—((S)-methyl-pyrrolidin-3-yl)-1-carbonyl)-2-methoxy-phenyl]-furo[3,2-b]pyridin-7-yl}-2-(tetrahydro-pyran-4-yloxy)-benzonitrile]	
100 to 1000 nM	< 100 nM	< 100 nM	COc1cc(C(=O)N(C)C)ccc1-c1cc2nccc(-c3ccc(OC4CCN(C)C4)c(C#N)c3)c2o1 (stereo not drawn) [Compound 149, 4-{7-[3-Cyano-4-(1-methyl-pyrrolidin-3-yloxy)-phenyl]-furo[3,2-b]pyridin-2-yl}-3-methoxy-N,N-dimethyl-benzamide]	

Compound	IC50 [1, 2]	IC50 (TBK1)	IC50 (IKKε)	IC50 ([1]; MDA-MB-468, read-out: pIRF3 IC50)
COc1cc(C(=O)N(C)CCO)cnc1-c1cc2nccc(-c3ccc(OC4CCOCC4)c(C#N)n3)c2o1 [Compound 327, 6-[7-[6-cyano-5-(oxan-4-yloxy)pyridin-2-yl]furo[3,2-b]pyridin-2-yl]-N-(2-hydroxyethyl)-5-methoxy-N-methylpyridine-3-carboxamide hydrochloride]		< 100 nM	< 100 nM	< 100 nM
